Measured values as given in ChEMBL document CHEMBL3632474, “Synthesis, biological evaluation and structure-activity relationship studies of isoflavene based Mannich bases with potent anti-cancer activity” (Bioorg Med Chem Lett, 2015).

Legend:
[1] = tested on: MRC5; experiment: Antiproliferative effects against human MRC5 cells after 72 hrs by Alamar blue assay; details: MRC5, 72 h
[2] = Antiproliferative effects against human SHEP cells after 72 hrs by Alamar blue assay

| Compound | IC50 [1] | IC50 [2] |
| --- | --- | --- |
| Oc1ccc(C2=COc3cc(O)ccc3C2)cc1 [ISOPHENOXODIOL] | 109 µM | 8.4 µM |
| CCCCN1COc2cc3c(cc2C1)C=C(c1ccc(O)cc1)CO3 | 33.8 µM | 3.9 µM |
| CN1COc2cc3c(cc2C1)C=C(c1ccc(O)cc1)CO3 |  | 6.6 µM |
| CC(C)N1COc2cc3c(cc2C1)C=C(c1ccc(O)cc1)CO3 |  | 12.2 µM |
| Oc1ccc(C2=Cc3cc(CN4CCOCC4)c(O)cc3OC2)cc1CN1CCOCC1 |  | 171 µM |
| CCCCCCCN1COc2cc3c(cc2C1)C=C(c1ccc(O)cc1)CO3 | 11.9 µM | 1.4 µM |
| Oc1ccc(C2=Cc3cc(CN4CCOCC4)c(O)cc3OC2)cc1 |  | 86.8 µM |
| OCCNCc1cc2c(cc1O)OC=C(c1ccc(O)cc1)C2 |  | 27.5 µM |
| Oc1ccc(C2=Cc3cc(CN4CCOCC4)c(O)c(CN4CCOCC4)c3OC2)cc1CN1CCOCC1 |  | 69 µM |
| Oc1ccc(C2=COc3cc(O)c(CNCc4ccccc4)cc3C2)cc1 | 40.9 µM | 5.7 µM |
| Oc1ccc(C2=Cc3cc(CN4CCCCC4)c(O)cc3OC2)cc1 |  | 19.9 µM |
| Oc1ccc(C2=Cc3cc4c(cc3OC2)OCN(CCc2ccccc2)C4)cc1 | 197 µM | 0.7 µM |
| C=CCN1COc2cc3c(cc2C1)C=C(c1ccc(O)cc1)CO3 |  | 9.1 µM |
| CCCCNCc1cc2c(cc1O)OC=C(c1ccc(O)cc1)C2 | 33.8 µM | 4 µM |
| OCCN1COc2cc3c(cc2C1)C=C(c1ccc(O)cc1)CO3 |  | 24.6 µM |
| CC(C)NCc1cc2c(cc1O)OC=C(c1ccc(O)cc1)C2 |  | 15.1 µM |
| CCCCCCCNCc1cc2c(cc1O)OC=C(c1ccc(O)cc1)C2 | 16 µM | 2.8 µM |
| C1=C(c2ccc3c(c2)CN(Cc2ccccc2)CO3)COc2cc3c(cc21)CN(Cc1ccccc1)CO3 |  | 3.7 µM |
| Oc1ccc(C2=Cc3cc(CN4CCCCC4)c(O)cc3OC2)cc1CN1CCCCC1 |  | 4.2 µM |
| Oc1ccc(C2=Cc3cc4c(cc3OC2)OCN(Cc2ccccc2)C4)cc1 |  | 5.7 µM |
| Oc1ccc(C2=COc3cc(O)c(CNCCc4ccccc4)cc3C2)cc1 | 36.7 µM | 1.8 µM |
| CN(C)Cc1cc2c(cc1O)OC=C(c1ccc(O)cc1)C2 |  | 5.8 µM |
| CCN(CC)Cc1cc2c(cc1O)OCC(c1ccc(O)cc1)=C2 |  | 35.7 µM |
| CCCCOCCCNCc1cc2c(cc1O)OC=C(c1ccc(O)cc1)C2 |  | 5.1 µM |
| CCN(CC)Cc1cc(C2=Cc3cc(CN(CC)CC)c(O)cc3OC2)ccc1O | 21.2 µM | 3.4 µM |
